Data reported in patent US9695155B2, “Herbicidal substituted pyrimidinyloxy benzene compounds” (E. I. DU PONT DE NEMOURS AND COMPANY, priority 2013, dated 2017).

Assays:
pigweed = assay: Test C postemergence; format: in vivo, Amaranthus retroflexus; conditions: for Plant response rating (0 to 100), Pigweed: 0 is no effect, 100 is complete control; for Pigweed plant response rating: 31 g ai/ha; for Pigweed plant response rating / Plant response rating, Pigweed: scale 0 to 100 (0 no effect, 100 complete control)
Summary of the method: (§1)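 Greenhouse herbicide screen. Pre: seeded loam/sand, sprayed at planting. Post: 1–4 leaf plants (2–18 cm) in peat-based mix. Formulation: solvent mixture + surfactant, non-phytotoxic. Readout: visual % control vs untreated, 13–15 d; dash = not tested.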

wheat, winter = assay: Test C postemergence; format: in vivo, Triticum aestivum; conditions: for Plant response rating (0 to 100), Wheat: 0 is no effect, 100 is complete control; for Wheat plant response rating: 31 g ai/ha; for Wheat plant response rating / Plant response rating, Wheat: scale 0 to 100 (0 no effect, 100 complete control)
Summary of the method: as §1

waterhemp = assay: Test C postemergence; format: in vivo, Amaranthus rudis; conditions: for Plant response rating (0 to 100), Waterhemp: 0 is no effect, 100 is complete control; for Waterhemp plant response rating: 31 g ai/ha; for Waterhemp plant response rating / Plant response rating, Waterhemp: scale 0 to 100 (0 no effect, 100 complete control)
Summary of the method: as §1

galium = assay: Test C postemergence; format: in vivo, Galium aparine; conditions: for Plant response rating (0 to 100), Galium: 0 is no effect, 100 is complete control; for Galium plant response rating: 31 g ai/ha; for Galium plant response rating / Plant response rating, Galium: scale 0 to 100 (0 no effect, 100 complete control)
Summary of the method: as §1

velvetleaf [1] = assay: Test A preemergence; format: in vivo, Abutilon theophrasti
Summary of the method: (§2)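 Greenhouse pot test, loam/sand soil. Formulation: non-phytotoxic solvent mix plus surfactant. Pre: directed spray onto soil after sowing. Post: plants at 1–2 leaf, 2–10 cm. Rated visually vs untreated controls at ~10 d, 0 (no effect) to 100 (complete control).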

blackgrass = assay: Test C postemergence; format: in vivo, Alopecurus myosuroides; conditions: for Plant response rating (0 to 100), Blackgrass: 0 is no effect, 100 is complete control; for Blackgrass plant response rating: 31 g ai/ha; for Blackgrass plant response rating / Plant response rating, Blackgrass: scale 0 to 100 (0 no effect, 100 complete control)
Summary of the method: as §1

morningglory [2] = assay: Test A postemergence; format: in vivo, Ipomoea spp.
Summary of the method: as §2

velvetleaf [3] = assay: Test A postemergence; format: in vivo, Abutilon theophrasti
Summary of the method: as §2

wheat = assay: Test A preemergence; format: in vivo, Triticum aestivum
Summary of the method: as §2

corn = assay: Test A postemergence; format: in vivo, Zea mays
Summary of the method: as §2

velvetleaf [4] = assay: Test C postemergence; format: in vivo, Abutilon theophrasti; conditions: for Plant response rating (0 to 100), Velvetleaf: 0 is no effect, 100 is complete control; for Velvetleaf plant response rating: 31 g ai/ha; for Velvetleaf plant response rating / Plant response rating, Velvetleaf: scale 0 to 100 (0 no effect, 100 complete control)
Summary of the method: as §1

oilseed rape = assay: Test C postemergence; format: in vivo, Brassica napus; conditions: for Plant response rating (0 to 100), Oilseed Rape: 0 is no effect, 100 is complete control; for Oilseed Rape plant response rating: 31 g ai/ha; for Oilseed Rape plant response rating / Plant response rating, Oilseed Rape: scale 0 to 100 (0 no effect, 100 complete control)
Summary of the method: as §1

soybean = assay: Test C postemergence; format: in vivo, Glycine max; conditions: for Plant response rating (0 to 100), Soybean: 0 is no effect, 100 is complete control; for Soybean plant response rating: 31 g ai/ha; for Soybean plant response rating / Plant response rating, Soybean: scale 0 to 100 (0 no effect, 100 complete control)
Summary of the method: as §1

kochia = assay: Test C postemergence; format: in vivo, Kochia scoparia; conditions: for Plant response rating (0 to 100), Kochia: 0 is no effect, 100 is complete control; for Kochia plant response rating: 31 g ai/ha; for Kochia plant response rating / Plant response rating, Kochia: scale 0 to 100 (0 no effect, 100 complete control)
Summary of the method: as §1

ragweed = assay: Test C postemergence; format: in vivo, Ambrosia elatior; conditions: for Plant response rating (0 to 100), Ragweed: 0 is no effect, 100 is complete control; for Ragweed plant response rating: 31 g ai/ha; for Ragweed plant response rating / Plant response rating, Ragweed: scale 0 to 100 (0 no effect, 100 complete control)
Summary of the method: as §1

morningglory [5] = assay: Test A preemergence; format: in vivo, Ipomoea spp.
Summary of the method: as §2

johnsongrass = assay: Test C postemergence; format: in vivo, Sorghum halepense; conditions: for Plant response rating (0 to 100), Johnsongrass: 0 is no effect, 100 is complete control; for Johnsongrass plant response rating: 31 g ai/ha; for Johnsongrass plant response rating / Plant response rating, Johnsongrass: scale 0 to 100 (0 no effect, 100 complete control)
Summary of the method: as §1

giant foxtail = assay: Test A preemergence; format: in vivo, Setaria faberii
Summary of the method: as §2

[6] = postemergence, visual rating, 13 to 15 days
[7] = Postemergence, 62 g ai/ha, 13 to 15 days
[8] = 1000 g ai/ha, 0 to 100 scale, 0 no effect, 100 complete control, approx. 10 days
[9] = 1000 g ai/ha, 0 to 100 scale, 0 no effect, 100 complete control
[10] = 125 g ai/ha, postemergence, visual rating
[11] = 500 g ai/ha, 0 to 100 scale where 0 is no effect and 100 is complete control
[12] = 125 g ai/ha, 0 to 100 scale where 0 is no effect and 100 is complete control

## Clc1cnc(Oc2ccccc2-n2cc(I)nn2)nc1 [Compound 222]
pigweed; 8 g ai/ha, postemergence
  Plant response rating (0 to 100), Pigweed: 65
pigweed; 16 g ai/ha, postemergence
  Plant response rating (0 to 100), Pigweed: 70
pigweed; [6]
  Pigweed plant response rating: 80
pigweed; [7]
  Plant response rating, Pigweed: 85
wheat, winter; 8 g ai/ha, postemergence
  Plant response rating (0 to 100), Wheat: 0
wheat, winter; 16 g ai/ha, postemergence
  Plant response rating (0 to 100), Wheat: 0
wheat, winter; [6]
  Wheat plant response rating: 0
wheat, winter; [7]
  Plant response rating, Wheat: 5
waterhemp; 8 g ai/ha, postemergence
  Plant response rating (0 to 100), Waterhemp: 60
waterhemp; 16 g ai/ha, postemergence
  Plant response rating (0 to 100), Waterhemp: 70
waterhemp; [6]
  Waterhemp plant response rating: 90
waterhemp; [7]
  Plant response rating, Waterhemp: 90
galium; 8 g ai/ha, postemergence
  Plant response rating (0 to 100), Galium: 65
galium; 16 g ai/ha, postemergence
  Plant response rating (0 to 100), Galium: 70
galium; [6]
  Galium plant response rating: 85
galium; [7]
  Plant response rating, Galium: 85
Velvetleaf [1]; [8]
  Velvetleaf plant response rating: 100
blackgrass; 8 g ai/ha, postemergence
  Plant response rating (0 to 100), Blackgrass: 0
blackgrass; 16 g ai/ha, postemergence
  Plant response rating (0 to 100), Blackgrass: 5
blackgrass; [6]
  Blackgrass plant response rating: 30
blackgrass; [7]
  Plant response rating, Blackgrass: 60
Morningglory [2]; [9]
  Plant response rating, Morningglory: 100
Velvetleaf [3]; [9]
  Plant response rating, Velvetleaf: 100
wheat; [8]
  Wheat plant response rating: 70
corn; [9]
  Plant response rating, Corn: 50
Velvetleaf [4]; 8 g ai/ha, postemergence
  Plant response rating (0 to 100), Velvetleaf: 35
Velvetleaf [4]; 16 g ai/ha, postemergence
  Plant response rating (0 to 100), Velvetleaf: 40
Velvetleaf [4]; [6]
  Velvetleaf plant response rating: 35
Velvetleaf [4]; [7]
  Plant response rating, Velvetleaf: 50
Oilseed rape; 8 g ai/ha, postemergence
  Plant response rating (0 to 100), Oilseed Rape: 10
Oilseed rape; 16 g ai/ha, postemergence
  Plant response rating (0 to 100), Oilseed Rape: 5
Oilseed rape; [6]
  Oilseed Rape plant response rating: 10
Oilseed rape; [7]
  Plant response rating, Oilseed Rape: 20
soybean; 8 g ai/ha, postemergence
  Plant response rating (0 to 100), Soybean: 40
soybean; 16 g ai/ha, postemergence
  Plant response rating (0 to 100), Soybean: 55
soybean; [6]
  Soybean plant response rating: 65
soybean; [7]
  Plant response rating, Soybean: 60
kochia; 8 g ai/ha, postemergence
  Plant response rating (0 to 100), Kochia: 60
kochia; 16 g ai/ha, postemergence
  Plant response rating (0 to 100), Kochia: 85
kochia; [6]
  Kochia plant response rating: 100
kochia; [7]
  Plant response rating, Kochia: 100
ragweed; 8 g ai/ha, postemergence
  Plant response rating (0 to 100), Ragweed: 20
ragweed; 16 g ai/ha, postemergence
  Plant response rating (0 to 100), Ragweed: 40
ragweed; [6]
  Ragweed plant response rating: 45
ragweed; [7]
  Plant response rating, Ragweed: 60
Morningglory [5]; [8]
  Morningglory plant response rating: 100
johnsongrass; 8 g ai/ha, postemergence
  Plant response rating (0 to 100), Johnsongrass: 0
johnsongrass; 16 g ai/ha, postemergence
  Plant response rating (0 to 100), Johnsongrass: 0
johnsongrass; [6]
  Johnsongrass plant response rating: 10
johnsongrass; [7]
  Plant response rating, Johnsongrass: 10
Giant foxtail; [8]
  Foxtail, Giant plant response rating: 100

## FC(F)c1cnn(-c2c(Br)cccc2Oc2ncc(Cl)cn2)c1 [Compound 232]
pigweed; 16 g ai/ha, postemergence
  Plant response rating (0 to 100), Pigweed: 60
pigweed; [6]
  Pigweed plant response rating: 70
pigweed; [10]
  Plant response rating, Pigweed: 85
pigweed; [7]
  Plant response rating, Pigweed: 60
wheat, winter; 16 g ai/ha, postemergence
  Plant response rating (0 to 100), Wheat: 0
wheat, winter; [6]
  Wheat plant response rating: 0
wheat, winter; [10]
  Plant response rating, Wheat: 5
wheat, winter; [7]
  Plant response rating, Wheat: 0
waterhemp; 16 g ai/ha, postemergence
  Plant response rating (0 to 100), Waterhemp: 65
waterhemp; [6]
  Waterhemp plant response rating: 65
waterhemp; [10]
  Plant response rating, Waterhemp: 85
waterhemp; [7]
  Plant response rating, Waterhemp: 70
galium; 16 g ai/ha, postemergence
  Plant response rating (0 to 100), Galium: 65
galium; [6]
  Galium plant response rating: 70
galium; [10]
  Plant response rating, Galium: 95
galium; [7]
  Plant response rating, Galium: 80
Velvetleaf [1]; 125 g ai/ha
  Velvetleaf plant response rating (0 to 100 scale): 20
Velvetleaf [1]; [11]
  Velvetleaf plant response rating: 100
blackgrass; 16 g ai/ha, postemergence
  Plant response rating (0 to 100), Blackgrass: 10
blackgrass; [6]
  Blackgrass plant response rating: 0
blackgrass; [10]
  Plant response rating, Blackgrass: 25
blackgrass; [7]
  Plant response rating, Blackgrass: 5
Morningglory [2]; [12]
  Morningglory plant response rating: 80
Morningglory [2]; [11]
  Plant response rating, Morningglory: 90
Velvetleaf [3]; [12]
  Velvetleaf plant response rating: 80
Velvetleaf [3]; [11]
  Plant response rating, Velvetleaf: 100
wheat; 125 g ai/ha
  Wheat plant response rating (0 to 100 scale): 0
wheat; [11]
  Wheat plant response rating: 10
corn; [12]
  Corn plant response rating: 30
corn; [11]
  Plant response rating, Corn: 90
Velvetleaf [4]; 16 g ai/ha, postemergence
  Plant response rating (0 to 100), Velvetleaf: 35
Velvetleaf [4]; [6]
  Velvetleaf plant response rating: 60
Velvetleaf [4]; [10]
  Plant response rating, Velvetleaf: 65
Velvetleaf [4]; [7]
  Plant response rating, Velvetleaf: 30
Oilseed rape; 16 g ai/ha, postemergence
  Plant response rating (0 to 100), Oilseed Rape: 5
Oilseed rape; [6]
  Oilseed Rape plant response rating: 50
Oilseed rape; [10]
  Plant response rating, Oilseed Rape: 60
Oilseed rape; [7]
  Plant response rating, Oilseed Rape: 5
soybean; 16 g ai/ha, postemergence
  Plant response rating (0 to 100), Soybean: 30
soybean; [6]
  Soybean plant response rating: 55
soybean; [10]
  Plant response rating, Soybean: 75
soybean; [7]
  Plant response rating, Soybean: 70
kochia; 16 g ai/ha, postemergence
  Plant response rating (0 to 100), Kochia: 85
kochia; [6]
  Kochia plant response rating: 85
kochia; [10]
  Plant response rating, Kochia: 98
kochia; [7]
  Plant response rating, Kochia: 90
ragweed; 16 g ai/ha, postemergence
  Plant response rating (0 to 100), Ragweed: 25
ragweed; [6]
  Ragweed plant response rating: 35
ragweed; [10]
  Plant response rating, Ragweed: 60
ragweed; [7]
  Plant response rating, Ragweed: 50
Morningglory [5]; 125 g ai/ha
  Morningglory plant response rating (0 to 100 scale): 20
Morningglory [5]; [11]
  Morningglory plant response rating: 90
johnsongrass; 16 g ai/ha, postemergence
  Plant response rating (0 to 100), Johnsongrass: 0
johnsongrass; [6]
  Johnsongrass plant response rating: 0
johnsongrass; [10]
  Plant response rating, Johnsongrass: 5
johnsongrass; [7]
  Plant response rating, Johnsongrass: 5
Giant foxtail; 125 g ai/ha
  Foxtail, Giant plant response rating (0 to 100 scale): 90
Giant foxtail; [11]
  Foxtail, Giant plant response rating: 90
